Measurements from paper PMC6345968, “Structural basis for species-selective targeting of Hsp90 in a pathogenic fungus” (Nature Communications, 2019).
Read-outs that look alike come from different tables or passages of the source.

Legend:
[1] = system: Hsp90 in HEPG2 lysate; details: for FP signal: raw
[2] = target: T1, Hsp90 in C. albicans (SC5314) lysate (Candida albicans, UniProt P46598); test: biochemical; format: binding; details: for FP signal: raw
T1 construct: endogenous in cells; host or cells: C. albicans SC5314 whole-cell lysate
T1 sequence (P46598 whole entry): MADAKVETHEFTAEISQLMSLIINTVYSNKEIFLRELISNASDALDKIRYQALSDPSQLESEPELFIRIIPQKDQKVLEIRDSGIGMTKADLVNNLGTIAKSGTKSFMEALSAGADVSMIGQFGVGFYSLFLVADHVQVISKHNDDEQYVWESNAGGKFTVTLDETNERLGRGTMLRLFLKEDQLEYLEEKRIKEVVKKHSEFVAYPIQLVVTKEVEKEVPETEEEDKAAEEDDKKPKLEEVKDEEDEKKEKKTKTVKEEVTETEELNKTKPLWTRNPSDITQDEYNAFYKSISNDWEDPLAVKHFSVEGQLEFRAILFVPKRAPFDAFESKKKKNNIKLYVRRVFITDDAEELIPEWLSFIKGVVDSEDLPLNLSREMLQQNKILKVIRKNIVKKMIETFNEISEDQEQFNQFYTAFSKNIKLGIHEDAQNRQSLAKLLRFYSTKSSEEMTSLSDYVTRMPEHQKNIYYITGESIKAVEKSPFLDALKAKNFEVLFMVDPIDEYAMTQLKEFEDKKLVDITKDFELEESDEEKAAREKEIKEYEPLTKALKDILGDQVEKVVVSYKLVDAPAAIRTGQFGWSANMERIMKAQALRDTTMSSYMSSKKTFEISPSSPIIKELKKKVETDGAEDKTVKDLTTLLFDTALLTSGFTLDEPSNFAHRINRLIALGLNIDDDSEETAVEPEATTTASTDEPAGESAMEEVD

[3] = EC50 relative to GdA, HEPG2 lysate
[4] = HEPG2 lysate, log concentration 0.137354 (1.372 nM)
[5] = HEPG2 lysate, log concentration 0.61437 (4.115 nM)
[6] = HEPG2 lysate, log concentration 1.09153 (12.346 nM)
[7] = HEPG2 lysate, log concentration 1.56864 (37.037 nM)
[8] = HEPG2 lysate, log concentration 2.04576 (111.111 nM)
[9] = HEPG2 lysate, log concentration 2.52288 (333.333 nM)
[10] = HEPG2 lysate, log concentration 3 (1000 nM)
[11] = HEPG2 lysate, log concentration 3.47712 (3000 nM)
[12] = HEPG2 lysate, log concentration -0.340084 (0.457 nM)
[13] = EC50 relative to GdA, SC5314 lysate
[14] = SC5314 lysate, 0.457 nM compound
[15] = SC5314 lysate, 1.372 nM compound
[16] = SC5314 lysate, 4.115 nM compound
[17] = SC5314 lysate, 12.346 nM compound
[18] = SC5314 lysate, 37.037 nM compound
[19] = SC5314 lysate, 111.111 nM compound
[20] = SC5314 lysate, 333.333 nM compound
[21] = SC5314 lysate, 1000 nM compound
[22] = SC5314 lysate, 3000 nM compound

For CC1CC2OC2C=CC=CC(=NOCCN2CCCC2=O)Cc2c(Cl)c(O)cc(O)c2C(=O)O1 (stereo not shown) [KF58333, reference compound], the “Ratio rel. GdA (HepG2)” value ([1]; EC50 / EC50 of GdA in HepG2 lysate) was 0.4698, the “Ratio rel. GdA (HepG2)” value [1, 3] was 0.4698 and the “FP signal, Fxn Control” value [1, 4] was 0.9604. For the same compound, the “FP signal, Fxn Control” value [1, 5] was 0.9307, the “FP signal, Fxn Control” value [1, 6] was 0.5149 and the “FP signal, Fxn Control” value [1, 7] was 0.302. The “FP signal, Fxn Control” value [1, 8] was 0.2277, the “FP signal, Fxn Control” value [1, 9] was 0.2129 and the “FP signal, Fxn Control” value [1, 10] was 0.2277. The “FP signal, Fxn Control” value [1, 11] was 0.2475, the “FP signal, Fxn Control” value [1, 12] was 0.9703 and the “FP signal (raw)” value ([1]; HepG2 lysate, 0.457 nM) was 196. For the same compound, the FP signal ([1]; HepG2 lysate, 0.457 nM compound) was 196, the “FP signal (raw)” value ([1]; HepG2 lysate, 1.372 nM) was 194 and the FP signal ([1]; HepG2 lysate, 1.372 nM compound) was 194. For the same compound, the “FP signal (raw)” value ([1]; HepG2 lysate, 4.115 nM) was 188, the FP signal ([1]; HepG2 lysate, 4.115 nM compound) was 188 and the “FP signal (raw)” value ([1]; HepG2 lysate, 12.346 nM) was 104. For the same compound, the FP signal ([1]; HepG2 lysate, 12.346 nM compound) was 104, the “FP signal (raw)” value ([1]; HepG2 lysate, 37.037 nM) was 61 and the FP signal ([1]; HepG2 lysate, 37.037 nM compound) was 61. The “FP signal (raw)” value ([1]; HepG2 lysate, 111.111 nM) was 46, the FP signal ([1]; HepG2 lysate, 111.111 nM compound) was 46 and the “FP signal (raw)” value ([1]; HepG2 lysate, 333.333 nM) was 43. For the same compound, the FP signal ([1]; HepG2 lysate, 333.333 nM compound) was 43, the “FP signal (raw)” value ([1]; HepG2 lysate, 1000 nM) was 46 and the FP signal ([1]; HepG2 lysate, 1000 nM compound) was 46. For the same compound, the “FP signal (raw)” value ([1]; HepG2 lysate, 3000 nM) was 50, the FP signal ([1]; HepG2 lysate, 3000 nM compound) was 50 and the EC50 ([1]; HepG2 lysate, oxime panel experiment 220817) was 0.0104 µM. The EC50 ([2]; EC50, SC5314 lysate, not normalized, oxime panel experiment 220817) was 0.00686 µM, the “Ratio re. GdA” value [2, 13] was 0.4034 and the “FP signal (raw)” value ([2]; SC5314 lysate, 0.457 nM) was 203. The “FP signal relative to 0 nM” value [2, 14] was 0.9807, the FP signal [2, 14] was 203 and the “FP signal (raw)” value ([2]; SC5314 lysate, 1.372 nM) was 193. For the same compound, the “FP signal relative to 0 nM” value [2, 15] was 0.9324, the FP signal [2, 15] was 193 and the “FP signal (raw)” value ([2]; SC5314 lysate, 4.115 nM) was 162. The “FP signal relative to 0 nM” value [2, 16] was 0.7826, the FP signal [2, 16] was 162 and the “FP signal (raw)” value ([2]; SC5314 lysate, 12.346 nM) was 71. The “FP signal relative to 0 nM” value [2, 17] was 0.343, the FP signal [2, 17] was 71 and the “FP signal (raw)” value ([2]; SC5314 lysate, 37.037 nM) was 44. For the same compound, the “FP signal relative to 0 nM” value [2, 18] was 0.2126, the FP signal [2, 18] was 44 and the “FP signal (raw)” value ([2]; SC5314 lysate, 111.111 nM) was 38. For the same compound, the “FP signal relative to 0 nM” value [2, 19] was 0.1836, the FP signal [2, 19] was 38 and the “FP signal (raw)” value ([2]; SC5314 lysate, 333.333 nM) was 35. For the same compound, the “FP signal relative to 0 nM” value [2, 20] was 0.1691, the FP signal [2, 20] was 35 and the “FP signal (raw)” value ([2]; SC5314 lysate, 1000 nM) was 37. For the same compound, the “FP signal relative to 0 nM” value [2, 21] was 0.1787, the FP signal [2, 21] was 37 and the “FP signal (raw)” value ([2]; SC5314 lysate, 3000 nM) was 36. The “FP signal relative to 0 nM” value [2, 22] was 0.1739, the FP signal [2, 22] was 36 and the HepG2/SC5314 ([2]; ratio of GdA-normalized EC50s, human over fungal lysate) was 1.165. It also gave a HepG2/SC5314 ([2]; ratio of GdA-relative EC50 ratios, HepG2 over SC5314) of 1.165.

For CC1(C)CC(=O)c2c(C(F)(F)F)nn(-c3ccc(C(N)=O)c(N[C@H]4CC[C@H](OC(=O)CN)CC4)c3)c2C1 [SNX-5422], the “Rel. to GdA” value [1, 3] was 2.507, the EC50 ([1]; HEPG2 lysate) was 0.0656 µM and the “FP signal, Fxn Control” value [1, 4] was 0.9858. The “FP signal, Fxn Control” value [1, 5] was 0.9717, the “FP signal, Fxn Control” value [1, 6] was 0.8821 and the “FP signal, Fxn Control” value [1, 7] was 0.7028. For the same compound, the “FP signal, Fxn Control” value [1, 8] was 0.4953, the “FP signal, Fxn Control” value [1, 9] was 0.3632 and the “FP signal, Fxn Control” value [1, 10] was 0.25. The “FP signal, Fxn Control” value [1, 11] was 0.217, the “FP signal, Fxn Control” value [1, 12] was 0.9858 and the “FP signal (raw)” value ([1]; HepG2 lysate, 0.457 nM) was 209. The “FP signal (raw)” value ([1]; HepG2 lysate, 1.372 nM) was 209, the “FP signal (raw)” value ([1]; HepG2 lysate, 4.115 nM) was 206 and the “FP signal (raw)” value ([1]; HepG2 lysate, 12.346 nM) was 187. For the same compound, the “FP signal (raw)” value ([1]; HepG2 lysate, 37.037 nM) was 149, the “FP signal (raw)” value ([1]; HepG2 lysate, 111.111 nM) was 105 and the “FP signal (raw)” value ([1]; HepG2 lysate, 333.333 nM) was 77. The “FP signal (raw)” value ([1]; HepG2 lysate, 1000 nM) was 53, the “FP signal (raw)” value ([1]; HepG2 lysate, 3000 nM) was 46 and the Hep/SC ([2]; EC50 HEPG2 / EC50 SC5314) was 5.438. For the same compound, the “Rel. to GdA” value [2, 13] was 0.6171, the “Hep/Sc rel. Gda” value ([2]; Hep/SC ratio relative to that of GdA) was 4.063 and the “FP signal (raw)” value ([2]; SC5314 lysate, 0.457 nM) was 205. For the same compound, the “FP signal (raw)” value ([2]; SC5314 lysate, 1.372 nM) was 197, the “FP signal (raw)” value ([2]; SC5314 lysate, 4.115 nM) was 177 and the “FP signal (raw)” value ([2]; SC5314 lysate, 12.346 nM) was 118. For the same compound, the “FP signal (raw)” value ([2]; SC5314 lysate, 37.037 nM) was 60, the “FP signal (raw)” value ([2]; SC5314 lysate, 111.111 nM) was 41 and the “FP signal (raw)” value ([2]; SC5314 lysate, 333.333 nM) was 35. For the same compound, the “FP signal (raw)” value ([2]; SC5314 lysate, 1000 nM) was 33, the “FP signal (raw)” value ([2]; SC5314 lysate, 3000 nM) was 34 and the EC50 ([2]; SC5314 lysate, read-out: EC50) was 0.0121 µM.
